Test [1] deals with T1, GST tagged LXRalpha LBD (ligand binding domain) (Homo sapiens, UniProt Q13133).
T1 construct: purchased Invitrogen pv4655
T1 sequence (Q13133 209-447 limits assumed): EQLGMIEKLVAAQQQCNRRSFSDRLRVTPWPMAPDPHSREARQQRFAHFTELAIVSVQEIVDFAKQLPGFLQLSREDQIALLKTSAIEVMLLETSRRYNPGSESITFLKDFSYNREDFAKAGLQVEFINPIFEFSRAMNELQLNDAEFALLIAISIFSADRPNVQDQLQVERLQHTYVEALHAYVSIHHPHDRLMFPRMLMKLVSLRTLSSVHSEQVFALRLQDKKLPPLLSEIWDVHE
As to the kind of experiment: LanthaScreen TR-FRET Liver X Receptor Coactivator Assay, LXR alpha-LBD (co-activator recruitment; IP and % Emax relative to T0901317). The following applies: for LXR alpha IP (nM) / EC50: Inflection Point of co-activator recruitment, LXR alpha-LBD, TR-FRET; for Emax: efficacy at max dose in relation to reference T0901317, LXR alpha-LBD, read-out: LXR alpha actiivty at max dose (%). It is filed as biochemical. On the procedure: (§1) Potency (Inflection Point, IP) and efficacy (Emax) are evaluated via compound-induced co-activator recruitment to glutathione-S-transferase (GST) tagged LXRbeta and LXRalpha LBD (ligand binding domain) proteins in relation to reference dual agonist compound T0901317 (N-(2,2,2-Trifluoroethyl)-N-[4-[2,2,2-trifluoro-1-hydroxy-1-(trifluoromethyl)ethyl]phenyl]benzenesulfonamide) using the LanthaScreen™ TR-FRET Liver X Receptor Coactivator Assays according to manufacturer's instructions (Invitrogen catalog number pv4658.pps and pv4655). While running the LanthaScreen™ TR-FRET Liver X Receptor Coactivator Assay, LXR alpha-LBD or LXR beta-LBD was added to ligand test compounds followed by addition of a mixture of a fluorescein-labelled coactivator peptide and terbium-conjugated anti-GST antibody. After an incubation period at room temperature, TR-FRET (time-resolved fluorescence resonance energy transfer) was measured using a filter-based instrument capable of TR-FRET, e.g. PerkinElmer Envision.
(TR-FRET usually uses a lanthanide donor and a delayed reading to cut background.)

Test [2] concerns the target T2, GST tagged LXRbeta LBD (ligand binding domain) (Homo sapiens, UniProt P55055).
T2 construct: purchased Invitrogen pv4658.pps
T2 sequence (P55055 222-460 limits assumed): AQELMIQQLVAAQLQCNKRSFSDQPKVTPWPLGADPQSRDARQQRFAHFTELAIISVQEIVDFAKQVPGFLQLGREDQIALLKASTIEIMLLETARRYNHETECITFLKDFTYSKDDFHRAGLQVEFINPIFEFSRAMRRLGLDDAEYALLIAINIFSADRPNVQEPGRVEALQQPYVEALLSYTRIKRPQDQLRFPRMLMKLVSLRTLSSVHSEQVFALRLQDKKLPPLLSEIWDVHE
As to the kind of experiment: LanthaScreen TR-FRET Liver X Receptor Coactivator Assay, LXR beta-LBD (co-activator recruitment; IP and % Emax relative to T0901317). It is filed as biochemical. The settings on record: for EC50: Inflection Point of co-activator recruitment, LXR beta-LBD, TR-FRET; for Emax: efficacy at max dose in relation to reference T0901317, LXR beta-LBD, read-out: LXR beta actiivty at max dose (%). The method, then: as §1

We go through 16 compounds from patent US10961215B2, “N-aryl and N-heteroaryl piperidine derivatives as liver X receptor beta agonists, compositions, and their use” (Merck Sharp & Dohme Corp., priority 2016, dated 2021).

One may read the EC50 as the concentration giving half of the maximal effect. Lower therefore signals a more potent agent. On to `COc1cccc([C@@](O)(C(=O)Nc2ccc(C3CCN(c4ccc(C(=O)N(C)C)c(Cl)c4)CC3)cc2)C(F)(F)F)c1` [Example 10-3, (R)-2-chloro-N,N-dimethyl-4-(4-(4-(3,3,3-trifluoro-2-hydroxy-2-(3-methoxyphenyl)propanamido)phenyl)piperidin-1-yl)benzamide], for which, in test [1], the “LXR alpha IP (nM)” value was “No IP” and the Emax came out at 18%. In test [2], the EC50 is 1330 nM and the Emax was determined as 67%.
`COc1ccccc1[C@@]1(C(=O)N(C)CCCC2CCN(c3ccc(C(=O)N(C)C)c(Cl)n3)CC2)CCCO1` [Example 1-60, (R)-2-chloro-6-(4-(3-(2-(2-methoxyphenyl)-N-methyltetrahydrofuran-2-carboxamido)propyl)piperidin-1-yl)-N,N-dimethylnicotinamide]: the figures for the EC50 in test [1] and in test [2] were 1450 nM and 60 nM, respectively. Moreover, the figures for the Emax in test [1] and in test [2] were 33% and 93%, respectively.
Turning to `CN(C)C(=O)c1ccc(N2CCC(CCCN(C)C(=O)[C@](O)(c3cccc(C4CC4)c3)C(F)(F)F)CC2)nc1Cl` [Example 1-33, (R)-2-chloro-6-(4-(3-(2-(3-cyclopropylphenyl)-3,3,3-trifluoro-2-hydroxy-N-methylpropanamido)propyl)piperidin-1-yl)-N,N-dimethylnicotinamide], in test [1], the “LXR alpha IP (nM)” value is recorded as “No IP” and the Emax came to 0%. In addition, in test [2], the EC50 amounted to 17 nM and the Emax was 70%.
On to `COc1cccc([C@@]2(C(=O)N(C)CCCC3CCN(c4ccc(C(=O)N(C)C)c(Cl)n4)CC3)CCCO2)c1` [Example 1-47, (R)-2-chloro-6-(4-(3-(2-(3-methoxyphenyl)-N-methyltetrahydrofuran-2-carboxamido)propyl)piperidin-1-yl)-N,N-dimethylnicotinamide], for which, in test [1], the “LXR alpha IP (nM)” value was “No IP” and the Emax amounted to 11%. In addition, in test [2], the EC50 came out at 100 nM and the Emax was found to be 56%.
As to `COc1cccc([C@@](O)(C(=O)N(C)CCCC2CCN(c3ccc(C(=O)N4CC(N)C4)c(Cl)n3)CC2)C(F)(F)F)c1` [Example 2-13, (R)-N-(3-(1-(5-(3-aminoazetidine-1-carbonyl)-6-chloropyridin-2-yl)piperidin-4-yl)propyl)-3,3,3-trifluoro-2-hydroxy-2-(3-methoxyphenyl)-N-methylpropanamide], in test [1], the “LXR alpha IP (nM)” value is listed as “No IP” and the Emax turned out to be 11%. Besides, in test [2], the EC50 was 195 nM and the Emax stood at 60%.
For `CNC(=O)c1ccc(N2CCC3(CC2)C[C@H]3CCN(C)C(=O)[C@](O)(c2cccc(OC)c2)C(F)(F)F)cc1Cl` [Example 7-21, 2-chloro-N-methyl-4-((S)-1-(2-((R)-3,3,3-trifluoro-2-hydroxy-2-(3-methoxyphenyl)-N-methylpropanamido)ethyl)-6-azaspiro[2.5]octan-6-yl)benzamide], in test [1], the “LXR alpha IP (nM)” value was “No IP” and the Emax came to 12%. In addition, in test [2], the response was half-maximal at 1550 nM (EC50) and the Emax was found to be 36%.
The matching figures for `CN(C)C(=O)c1ccc(N2CCC(CCCN(C)C(=O)[C@]3(c4ccccc4)CCOC3)CC2)nc1Cl` [Example 1-54, (S)-2-chloro-N,N-dimethyl-6-(4-(3-(N-methyl-3-phenyltetrahydrofuran-3-carboxamido)propyl)piperidin-1-yl)nicotinamide]: “No IP”, 15%, 579 nM and 49%.
Consider `CCOc1cccc([C@@](O)(C(=O)N(C)C[C@@H]2C[C@@H]2C2CCN(c3ccc(C(=O)N(C)C)c(Cl)n3)CC2)C(F)(F)F)c1` [Example 15-1, 2-chloro-6-(4-((1R,2R)-2-(((R)-2-(3-ethoxyphenyl)-3,3,3-trifluoro-2-hydroxy-N-methylpropanamido)methyl)cyclopropyl)piperidin-1-yl)-N,N-dimethylnicotinamide], for which, in test [1], the “LXR alpha IP (nM)” value is given as “No IP” and the Emax is 9%. Further, in test [2], the midpoint of the response, the EC50, lay at 34 nM and the Emax amounted to 66%.
Regarding `CN(C)C(=O)c1ccc(N2CCC(C[C@@H]3C[C@H]3CN(C)C(=O)[C@](O)(c3ccccc3)C(F)(F)F)CC2)nc1Cl` [Example 18-4, 2-chloro-N,N-dimethyl-6-(4-(((1R,2R)-2-(((R)-3,3,3-trifluoro-2-hydroxy-N-methyl-2-phenylpropanamido)methyl)cyclopropyl)methyl)piperidin-1-yl)nicotinamide], in test [1], the “LXR alpha IP (nM)” value is “No IP” and the Emax came to 15%. For the same compound, in test [2], it took 66 nM to reach a half-maximal effect (EC50) and the Emax is 57%.
As to `COc1cccc([C@@](O)(C(=O)N(C)CC[C@@H]2CC23CCN(c2ccc(C(=O)NC4CC4)c(Cl)c2)CC3)C(F)(F)F)c1` [Example 7-27, 2-chloro-N-cyclopropyl-4-((S)-1-(2-((R)-3,3,3-trifluoro-2-hydroxy-2-(3-methoxyphenyl)-N-methylpropanamido)ethyl)-6-azaspiro[2.5]octan-6-yl)benzamide], in test [1], the “LXR alpha IP (nM)” value was “No IP” and the Emax turned out to be 5%. In test [2], it took 1870 nM to reach a half-maximal effect (EC50) and the Emax came out at 32%.
With `CN(CC[C@@H]1CC12CCN(c1ccc(C(=O)NC3CC3)c(Cl)c1)CC2)C(=O)[C@](O)(c1ccccc1)C(F)(F)F` [Example 7-26, 2-chloro-N-cyclopropyl-4-((S)-1-(2-((R)-3,3,3-trifluoro-2-hydroxy-N-methyl-2-phenylpropanamido)ethyl)-6-azaspiro[2.5]octan-6-yl)benzamide], in test [1], the EC50 came out at 6100 nM and the Emax was 32%. In test [2], the EC50 stood at 1020 nM and the Emax was 31%.
In the case of `CNC(=O)c1ccc(N2CCC(c3ccc(NC(=O)[C@](O)(c4cccc(OC)c4)C(F)(F)F)cc3)CC2)cc1Cl` [Example 10-2, (R)-2-chloro-N-methyl-4-(4-(4-(3,3,3-trifluoro-2-hydroxy-2-(3-methoxyphenyl)propanamido)phenyl)piperidin-1-yl)benzamide], in test [1], the “LXR alpha IP (nM)” value is “No IP” and the Emax was 0%. Further, in test [2], a half-maximal effect (EC50) was put at 3730 nM and the Emax worked out at 40%.
As for `CN(C)C(=O)c1ccc(N2CCC(CCCN(C)C(=O)[C@](O)(c3cccc(C4CC4)c3)C(F)(F)F)CC2)cc1Cl` [Example 4-3, (R)-2-chloro-4-(4-(3-(2-(3-cyclopropylphenyl)-3,3,3-trifluoro-2-hydroxy-N-methylpropanamido)propyl)piperidin-1-yl)-N,N-dimethylbenzamide], in test [1], the “LXR alpha IP (nM)” value was “No IP” and the Emax amounted to 0%. In test [2], the EC50 came out at 67 nM and the Emax was determined as 53%.
The corresponding values for `CCc1cccc([C@](O)(C(=O)N(C)CCCC2CCN(c3ccc(C(=O)N(C)C)c(Cl)n3)CC2)C(F)(F)F)c1` [Example 1-31, (S)-2-chloro-6-(4-(3-(2-(3-ethylphenyl)-3,3,3-trifluoro-2-hydroxy-N-methylpropanamido)propyl)piperidin-1-yl)-N,N-dimethylnicotinamide] are “No IP”, 0%, 163 nM and 56%.
On to `COc1cccc([C@@](O)(C(=O)N(C)CCCC2CCN(c3ccc(C(=O)N(C)C)c(C4CC4)n3)CC2)C(F)(F)F)c1` [Example 2-17, (R)-2-cyclopropyl-N,N-dimethyl-6-(4-(3-(3,3,3-trifluoro-2-hydroxy-2-(3-methoxyphenyl)-N-methylpropanamido)propyl)piperidin-1-yl)nicotinamide], for which, in test [1], the “LXR alpha IP (nM)” value was “No IP” and the Emax came out at 0%. Besides, in test [2], a half-maximal response (EC50) required 5730 nM and the Emax came to 22%.
The matching figures for `CN(C)C(=O)c1ccc(N2CCC(CCCNC(=O)C(C)(C)c3ccccc3)CC2)cc1Cl` [Example 5-4, 2-chloro-N,N-dimethyl-4-(4-(3-(2-methyl-2-phenylpropanamido)propyl)piperidin-1-yl)benzamide]: “No IP”, 16%, 561 nM and 72%.
